Results from PubChem BioAssay AID1259407 (Chemical Carcinogenesis Research Information System (CCRIS), 2018).
The source made the active and inactive calls. How the calls were made is not given here.

Test system: CCRIS mutagenicity, Ames/micronucleus/aberration tests
Assay: CCRIS mutagenicity studies
[1] = Test System: AMES SALMONELLA TYPHIMURIUM, Strain/Indicator: TA98, Metabolic Activation: NONE, Method: PREINCUBATION
[2] = Test System: AMES SALMONELLA TYPHIMURIUM, Strain/Indicator: TA100, Metabolic Activation: NONE, Method: PREINCUBATION
[3] = Test System: AMES SALMONELLA TYPHIMURIUM, Strain/Indicator: TA100, Metabolic Activation: RAT, LIVER, S-9, PHENOBARBITAL AND 5,6-BENZOFLAVONE, Method: PREINCUBATION
[4] = Test System: AMES SALMONELLA TYPHIMURIUM, Strain/Indicator: TA1535, Metabolic Activation: NONE, Method: PREINCUBATION
[5] = Test System: AMES SALMONELLA TYPHIMURIUM, Strain/Indicator: TA1537, Metabolic Activation: NONE, Method: PREINCUBATION
[6] = Test System: AMES SALMONELLA TYPHIMURIUM, Strain/Indicator: TA100, Metabolic Activation: NONE, Method: STANDARD PLATE
[7] = Test System: AMES SALMONELLA TYPHIMURIUM, Strain/Indicator: TA98, Metabolic Activation: NONE, Method: STANDARD PLATE

With `CCOC(=O)[C@H](CCc1ccccc1)N[C@@H](C)C(=O)N1[C@H](C(=O)O)C[C@H]2CCCC[C@@H]21` as the compound, how does the mutagenic call [1] read?
The mutagenic call was “inactive; negative”.

And the mutagenic call (Test System: AMES SALMONELLA TYPHIMURIUM, Strain/Indicator: TA98, Metabolic Activation: RAT, LIVER, S-9, PHENOBARBITAL AND 5,6-BENZOFLAVONE, Method: PREINCUBATION)?
The mutagenic call was “inactive; negative”.

And the mutagenic call [2]?
Its mutagenic call is “inactive; negative”.

And the mutagenic call [3]?
The mutagenic call was “inactive; negative”.

What about the mutagenic call [4] of the same compound?
Its mutagenic call is “inactive; negative”.

And the mutagenic call (Test System: AMES SALMONELLA TYPHIMURIUM, Strain/Indicator: TA1535, Metabolic Activation: RAT, LIVER, S-9, PHENOBARBITAL AND 5,6-BENZOFLAVONE, Method: PREINCUBATION)?
The mutagenic call was “inactive; negative”.

What about the mutagenic call [5] of the same compound?
Its mutagenic call is “inactive; negative”.

What about the mutagenic call (Test System: AMES SALMONELLA TYPHIMURIUM, Strain/Indicator: TA1537, Metabolic Activation: RAT, LIVER, S-9, PHENOBARBITAL AND 5,6-BENZOFLAVONE, Method: PREINCUBATION) of the same compound?
The mutagenic call was “inactive; negative”.

And the mutagenic call (Test System: E. COLI, Strain/Indicator: WP2 UVRA, Metabolic Activation: NONE, Method: PREINCUBATION)?
Its mutagenic call is “inactive; negative”.

And the mutagenic call (Test System: E. COLI, Strain/Indicator: WP2 UVRA, Metabolic Activation: RAT, LIVER, S-9, PHENOBARBITAL AND 5,6-BENZOFLAVONE, Method: PREINCUBATION)?
The mutagenic call was “inactive; negative”.

Which results are given for `NCCCCCCN`?
mutagenic call (Test System: AMES SALMONELLA TYPHIMURIUM, Strain/Indicator: TA98, Metabolic Activation: HAMSTER, LIVER, S-9, AROCLOR 1254 (10%), Method: PREINCUBATION): inactive; negative; mutagenic call [1]: inactive; negative; mutagenic call (Test System: AMES SALMONELLA TYPHIMURIUM, Strain/Indicator: TA98, Metabolic Activation: RAT, LIVER, S-9, AROCLOR 1254 (10%), Method: PREINCUBATION): inactive; negative; mutagenic call (Test System: AMES SALMONELLA TYPHIMURIUM, Strain/Indicator: TA100, Metabolic Activation: HAMSTER, LIVER, S-9, AROCLOR 1254 (10%), Method: PREINCUBATION): inactive; negative; mutagenic call [2]: inactive; negative; mutagenic call (Test System: AMES SALMONELLA TYPHIMURIUM, Strain/Indicator: TA100, Metabolic Activation: RAT, LIVER, S-9, AROCLOR 1254 (10%), Method: PREINCUBATION): inactive; negative; mutagenic call (Test System: AMES SALMONELLA TYPHIMURIUM, Strain/Indicator: TA1535, Metabolic Activation: HAMSTER, LIVER, S-9, AROCLOR 1254 (10%), Method: PREINCUBATION): inactive; negative; mutagenic call [4]: inactive; negative; mutagenic call (Test System: AMES SALMONELLA TYPHIMURIUM, Strain/Indicator: TA1535, Metabolic Activation: RAT, LIVER, S-9, AROCLOR 1254 (10%), Method: PREINCUBATION): inactive; negative; mutagenic call (Test System: AMES SALMONELLA TYPHIMURIUM, Strain/Indicator: TA1537, Metabolic Activation: HAMSTER, LIVER, S-9, AROCLOR 1254 (10%), Method: PREINCUBATION): inactive; negative; mutagenic call [5]: inactive; negative; mutagenic call (Test System: AMES SALMONELLA TYPHIMURIUM, Strain/Indicator: TA1537, Metabolic Activation: RAT, LIVER, S-9, AROCLOR 1254 (10%), Method: PREINCUBATION): inactive; negative

`O=C(CBr)NCc1ccccc1` was tested. Which mutagenic call (Test System: AMES SALMONELLA TYPHIMURIUM, Strain/Indicator: TA100, Metabolic Activation: MOUSE, LIVER, S-9, AROCLOR 1254, Method: STANDARD PLATE) did it give?
Its mutagenic call is “active; positive”.

What about the mutagenic call [6] of the same compound?
Its mutagenic call is “inactive; negative”.

`CCCCc1oc2ccccc2c1C(=O)c1cc(I)c(OCCN(CC)CC)c(I)c1` was tested. Which mutagenic call (End Point: In vivo chromosomal aberrations, Test System: Bone marrow cells, Species: Rat, Strain/Sex: SHR (spontaneously hypertensive)/Female, Route: Oral) did it give?
The mutagenic call was “inactive; negative”.

What about the mutagenic call (End Point: In vivo chromosomal aberrations, Test System: Bone marrow cells, Species: Rat, Strain/Sex: Wistar-Kyoto (WKY)/Female, Route: Oral) of the same compound?
The mutagenic call was “active; positive”.

With `O=C(O)COc1ccc(C(=O)c2cccs2)c(Cl)c1Cl` as the compound, how does the mutagenic call (Test System: AMES SALMONELLA TYPHIMURIUM, Strain/Indicator: TA100(FR1), Metabolic Activation: NONE, Method: STANDARD PLATE) read?
The mutagenic call was “inactive; negative”.

What about the mutagenic call (Test System: AMES SALMONELLA TYPHIMURIUM, Strain/Indicator: TA100(FR1), Metabolic Activation: RAT, LIVER, S-9, PHENOBARBITAL AND 3-METHYLCHOLANTHRENE, Method: STANDARD PLATE) of the same compound?
Its mutagenic call is “inactive; negative”.

What about the mutagenic call [6] of the same compound?
Its mutagenic call is “inactive; negative”.

And the mutagenic call (Test System: AMES SALMONELLA TYPHIMURIUM, Strain/Indicator: TA100, Metabolic Activation: RAT, LIVER, S-9, PHENOBARBITAL AND 3-METHYLCHOLANTHRENE, Method: STANDARD PLATE)?
Its mutagenic call is “inactive; negative”.

What about the mutagenic call (Test System: CHINESE HAMSTER V-79, Strain/Indicator: V-79/6-THIOGUANINE, Metabolic Activation: NONE) of the same compound?
Its mutagenic call is “inactive; negative”.

And the mutagenic call (Test System: CHINESE HAMSTER V-79, Strain/Indicator: V-79/6-THIOGUANINE, Metabolic Activation: RAT, LIVER, HEPATOCYTES (SHERMAN OR SPRAGUE-DAWLEY RATS))?
The mutagenic call was “inactive; negative”.

And the mutagenic call (Test System: CHINESE HAMSTER V-79, Strain/Indicator: V-79/OUABAIN, Metabolic Activation: NONE)?
Its mutagenic call is “active; positive”.

And the mutagenic call (Test System: CHINESE HAMSTER V-79, Strain/Indicator: V-79/OUABAIN, Metabolic Activation: RAT, LIVER, HEPATOCYTES (SHERMAN OR SPRAGUE-DAWLEY RATS))?
The mutagenic call was “active; positive”.

For `COc1nsc2ccc(N)cc12`, which mutagenic call (Test System: AMES SALMONELLA TYPHIMURIUM, Strain/Indicator: TA100, Metabolic Activation: S-9, Method: STANDARD PLATE) is on record?
Its mutagenic call is “active; positive”.

For `COc1ccc2nc3occc3c(OC)c2c1`, which mutagenic call (Test System: AMES SALMONELLA TYPHIMURIUM, Strain/Indicator: TA98, Metabolic Activation: RAT, LIVER, S-9, PHENOBARBITAL, Method: STANDARD PLATE) is on record?
The mutagenic call was “active; positive”.

What about the mutagenic call (Test System: AMES SALMONELLA TYPHIMURIUM, Strain/Indicator: TA100, Metabolic Activation: RAT, LIVER, S-9, PHENOBARBITAL, Method: STANDARD PLATE) of the same compound?
Its mutagenic call is “active; positive”.

Which mutagenic call [1] does the source give for `CC(C)c1ccc2oc3nc(N)c(C(=O)O)cc3c(=O)c2c1` here?
The mutagenic call was “inactive; negative”.

What about the mutagenic call (Test System: AMES SALMONELLA TYPHIMURIUM, Strain/Indicator: TA98, Metabolic Activation: RAT, LIVER, S-9, AROCLOR 1254, Method: PREINCUBATION) of the same compound?
Its mutagenic call is “inactive; negative”.

And the mutagenic call [2]?
The mutagenic call was “inactive; negative”.

What about the mutagenic call (Test System: AMES SALMONELLA TYPHIMURIUM, Strain/Indicator: TA100, Metabolic Activation: RAT, LIVER, S-9, AROCLOR 1254, Method: PREINCUBATION) of the same compound?
The mutagenic call was “inactive; negative”.

What about the mutagenic call [5] of the same compound?
Its mutagenic call is “inactive; negative”.

And the mutagenic call (Test System: AMES SALMONELLA TYPHIMURIUM, Strain/Indicator: TA1537, Metabolic Activation: RAT, LIVER, S-9, AROCLOR 1254, Method: PREINCUBATION)?
The mutagenic call was “inactive; negative”.

What about the mutagenic call (Test System: E. COLI, Strain/Indicator: WP2 (HCR), Metabolic Activation: NONE, Method: PREINCUBATION) of the same compound?
The mutagenic call was “inactive; negative”.

What about the mutagenic call (Test System: E. COLI, Strain/Indicator: WP2 (HCR), Metabolic Activation: RAT, LIVER, S-9, AROCLOR 1254, Method: PREINCUBATION) of the same compound?
The mutagenic call was “inactive; negative”.

Which results are given for `N#[N+]c1cccc2c1C(=O)c1ccccc1C2=O`?
mutagenic call [7]: inactive; negative; mutagenic call (Test System: AMES SALMONELLA TYPHIMURIUM, Strain/Indicator: TA98, Metabolic Activation: RAT, LIVER, S-9, AROCLOR 1254, Method: STANDARD PLATE): active; positive; mutagenic call [6]: inactive; negative; mutagenic call (Test System: AMES SALMONELLA TYPHIMURIUM, Strain/Indicator: TA100, Metabolic Activation: RAT, LIVER, S-9, AROCLOR 1254, Method: STANDARD PLATE): active; positive; mutagenic call (Test System: AMES SALMONELLA TYPHIMURIUM, Strain/Indicator: TA1535, Metabolic Activation: NONE, Method: STANDARD PLATE): inactive; negative; mutagenic call (Test System: AMES SALMONELLA TYPHIMURIUM, Strain/Indicator: TA1537, Metabolic Activation: NONE, Method: STANDARD PLATE): active; positive; mutagenic call (Test System: AMES SALMONELLA TYPHIMURIUM, Strain/Indicator: TA1537, Metabolic Activation: RAT, LIVER, S-9, AROCLOR 1254, Method: STANDARD PLATE): active; positive

Which results are given for `CC1(C2CO2)CO1` (stereo unspecified)?
mutagenic call [7]: active; positive; mutagenic call [6]: active; positive

For `CCN(CC)c1ccc(N=O)cc1`, which mutagenic call (Test System: AMES SALMONELLA TYPHIMURIUM, Strain/Indicator: TA100, Metabolic Activation: NONE, Method: FLUCTUATION TEST) is on record?
Its mutagenic call is “active; positive”.

For `c1cnc2c(c1)ccc1ncccc12`, which mutagenic call [3] is on record?
The mutagenic call was “active; positive”.
